Measurements published in ChEMBL document CHEMBL1201862, “PubChem BioAssay data set” (2004).
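Method: 48-hour compound exposure of cells in 96-well plates, five concentrations, linear interpolation of endpoints. The concentration for 50% growth inhibition is given as GI50.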 Activity calls are given as the source filed them. Rule as the data show it: active = GI50 up to about 1.1 µM and inactive = higher.

Tests used:
Test in all cases: NCI-60 cell line screen, 48 h
OVCAR-3 = test system: OVCAR-3
KM12 = test system: KM12
SF-295 = test system: SF-295
EKVX = test system: EKVX
OVCAR-5 = test system: OVCAR-5
MDA-N = test system: MDA-N
CAKI-1 = test system: CAKI-1
COLO 205 = test system: COLO 205
MCF7 = test system: MCF7
BT-549 = test system: BT-549
SNB-19 = test system: SNB-19
SK-MEL-2 = test system: SK-MEL-2
OVCAR-8 = test system: OVCAR-8
SW-620 = test system: SW-620
MOLT-4 = test system: MOLT-4
M14 = test system: M14
A498 = test system: A498
DLD-1 = test system: DLD-1
HL-60 = test system: HL-60
786-0 = test system: 786-0

Measured: GI50

O=C1c2ccccc2C(=O)c2c1oc1cc(O)c(Cl)cc21
inactive: OVCAR-3 2.61 µM | KM12 6.35 µM | SF-295 2.8 µM | EKVX 8.75 µM | OVCAR-5 11.2 µM | MDA-N 1.75 µM | CAKI-1 16.7 µM | COLO 205 1.72 µM | MCF7 8.11 µM | BT-549 4.97 µM | SNB-19 8.81 µM | SK-MEL-2 1.99 µM | OVCAR-8 7.38 µM | SW-620 8.45 µM | MOLT-4 12.3 µM | M14 3.1 µM | A498 19.7 µM | DLD-1 6.22 µM | HL-60 6.92 µM | 786-0 10.8 µM

O=C1/C(=C/c2ccccc2)CN(C(=O)OCc2ccccc2)C/C1=C\c1ccccc1
inactive: OVCAR-3 1.68 µM | KM12 5.47 µM | SF-295 12.8 µM | EKVX 20.7 µM | OVCAR-5 17.4 µM | MDA-N 3.06 µM | CAKI-1 18.1 µM | COLO 205 16.1 µM | MCF7 6.43 µM | BT-549 13.2 µM | SNB-19 26.6 µM | SK-MEL-2 17.9 µM | OVCAR-8 13.1 µM | SW-620 1.81 µM | MOLT-4 2.76 µM | M14 8.07 µM | A498 27.4 µM | DLD-1 3.63 µM | HL-60 1.79 µM | 786-0 11.5 µM

COc1ccc(Br)c2c1CC(C(=O)O)CC2 (stereo unspecified)
inactive: OVCAR-3 > 100 µM | KM12 > 100 µM | SF-295 > 100 µM | EKVX > 100 µM | OVCAR-5 > 100 µM | MDA-N > 100 µM | CAKI-1 > 100 µM | COLO 205 > 100 µM | MCF7 > 100 µM | BT-549 > 100 µM | SNB-19 > 100 µM | SK-MEL-2 > 100 µM | OVCAR-8 > 100 µM | SW-620 > 100 µM | MOLT-4 > 100 µM | M14 > 100 µM | A498 > 100 µM | DLD-1 > 100 µM | HL-60 > 100 µM | 786-0 > 100 µM

COC1/C=C/O[C@@]2(C)Oc3c(C)c(O)c4c(O)c(cc(O)c4c3C2=O)NC(=O)/C(C)=C\C=C\[C@H](C)C(O)[C@@H](C)[C@@H](O)[C@@H](C)[C@H](OC(C)=O)[C@@H]1C (stereo partly specified)
inactive: KM12 27.2 µM | SF-295 94.8 µM | OVCAR-5 38.5 µM | MDA-N 14.5 µM | CAKI-1 37.9 µM | COLO 205 2.65 µM | MCF7 10.2 µM | BT-549 18.5 µM | SNB-19 82.2 µM | SK-MEL-2 13.8 µM | OVCAR-8 18.7 µM | MOLT-4 6.31 µM | M14 16.1 µM | A498 38.2 µM | DLD-1 10.1 µM | 786-0 15.2 µM
